Experimental data published in US8987258B2 (priority 2008, dated 2015).

Target: T1, SIRT1 (Homo sapiens, UniProt Q96EB6)
T1 sequence (Q96EB6 1-747): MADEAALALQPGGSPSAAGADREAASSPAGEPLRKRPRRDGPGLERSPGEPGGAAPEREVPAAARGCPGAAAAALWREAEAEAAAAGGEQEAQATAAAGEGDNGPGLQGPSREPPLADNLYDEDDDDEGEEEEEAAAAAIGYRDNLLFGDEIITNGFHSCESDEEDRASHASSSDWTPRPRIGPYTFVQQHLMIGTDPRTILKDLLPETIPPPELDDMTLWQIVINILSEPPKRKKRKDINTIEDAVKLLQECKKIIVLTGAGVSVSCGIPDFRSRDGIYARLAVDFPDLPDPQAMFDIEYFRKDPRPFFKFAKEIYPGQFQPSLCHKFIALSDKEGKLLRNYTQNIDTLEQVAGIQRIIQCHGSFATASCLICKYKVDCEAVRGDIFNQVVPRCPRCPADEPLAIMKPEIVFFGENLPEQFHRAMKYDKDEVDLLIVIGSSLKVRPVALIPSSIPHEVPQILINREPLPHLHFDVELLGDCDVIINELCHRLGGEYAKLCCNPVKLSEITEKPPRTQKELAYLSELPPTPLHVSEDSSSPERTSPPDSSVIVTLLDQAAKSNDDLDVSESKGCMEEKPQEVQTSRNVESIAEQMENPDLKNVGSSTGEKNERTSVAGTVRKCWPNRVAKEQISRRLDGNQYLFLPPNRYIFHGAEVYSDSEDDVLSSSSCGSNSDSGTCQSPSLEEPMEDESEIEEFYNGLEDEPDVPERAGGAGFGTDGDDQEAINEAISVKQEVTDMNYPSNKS
Assay: Mass spectrometry based SIRT1 deacetylase activation assay
Assay type: biochemical
Conditions: for EC1.5 μM: 0.5 μM peptide substrate, 120 μM βNAD+, 10 nM SIRT1, 25 min, 25° C.; for Emax: 25 min, mass spectrometry assay, read-out: % Fold Act. (percent maximum fold activation)
Text: A mass spectrometry based assay was used to identify modulators of SIRT1 activity. The mass spectrometry based assay utilizes a peptide having 20 amino acid residues as follows: Ac-EE-K(biotin)-GQSTSSHSK(Ac)NleSTEG-K(5TMR)-EE-NH2 (SEQ ID NO: 1) wherein K(Ac) is an acetylated lysine residue and Nle is a norleucine. The peptide is labeled with the fluorophore 5TMR (excitation 540 nm/emission 580 nm) at the C-terminus. The sequence of the peptide substrate is based on p53 with several modifications. In addition, the methionine residue naturally present in the sequence was replaced with the norleucine because the methionine may be susceptible to oxidation during synthesis and purification.
The mass spectrometry assay is conducted as follows: 0.5 μM peptide substrate and 120 μM βNAD^+ is incubated with 10 nM SIRT1 for 25 minutes at 25° C. in a reaction buffer (50 mM Tris-acetate pH 8, 137 mM NaCl, 2.7 mM KCl, 1 mM MgCl2, 5 mM DTT, 0.05% BSA). Test compounds may be added to the reaction as described above. […] After the 25 minute incubation with SIRT1, 10 μL of 10% formic acid is added to stop the reaction. Reactions are sealed and frozen for later mass spec analysis. Determination of the mass of the substrate peptide allows for precise determination of the degree of acetylation (i.e. starting material) as compared to deacetylated peptide (product).
A control for inhibition of sirtuin activity is conducted by adding 1 μL of 500 mM nicotinamide as a negative control at the start of the reaction (e.g., permits determination of maximum sirtuin inhibition). A control for activation of sirtuin activity is conducted using 10 nM of sirtuin protein, with 1 μL of DMSO in place of compound, to determine the amount of deacetylation of the substrate at a given timepoint within the linear range of the assay. This timepoint is the same as that used for test compounds and, within the linear range, the endpoint represents a change in velocity.
For the above assay, SIRT1 protein was expressed and purified as follows. […] The protein was expressed by induction with 1 mM IPTG as an N-terminal His-tag fusion protein at 18° C. overnight and harvested at 30,000×g. Cells were lysed with lysozyme in lysis buffer (50 mM Tris-HCl, 2 mM Tris[2-carboxyethyl]phosphine (TCEP), 10 μM ZnCl2, 200 mM NaCl) and further treated with sonication for 10 min for complete lysis. The protein was purified over a Ni-NTA column (Amersham) and fractions containing pure protein were pooled, concentrated and run over a sizing column (Sephadex S200 26/60 global). The peak containing soluble protein was collected and run on an Ion-exchange column (MonoQ). Gradient elution (200 mM-500 mM NaCl) yielded pure protein. This protein was concentrated and dialyzed against dialysis buffer (20 mM Tris-HCl, 2 mM TCEP) overnight. The protein was aliquoted and frozen at −80° C. until further use.

SMILES: O=C(Nc1cccc2c(=O)cc(-c3ccccc3C(F)F)oc12)c1cscn1 [Compound 283]
- EC1.5 μM: A (EC1-5<1.0)
- Emax: > 200%

SMILES: Cc1cnc(NC(=O)c2cccc3c(=O)cc(-c4ccccc4C(F)F)oc23)s1 [Compound 284]
- EC1.5 μM: C (EC1.5>25 μM)
- Emax: < 200%

SMILES: Cc1cnc(NC(=O)c2cccc3c(=O)cc(-c4ccccc4C(C)C)oc23)s1 [Compound 285]
- EC1.5 μM: C (EC1.5>25 μM)
- Emax: < 200%

SMILES: CC(C)c1ccccc1-c1cc(=O)c2cccc(NC(=O)c3cnccn3)c2o1 [Compound 286]
- EC1.5 μM: A (EC1-5<1.0)
- Emax: > 200%

SMILES: CC(C)c1ccccc1-c1cc(=O)c2cccc(NC(=O)c3cscn3)c2o1 [Compound 287]
- EC1.5 μM: B (EC1.5 1-25 μM)
- Emax: > 200%

SMILES: O=C(Nc1cccc2c(=O)cc(-c3cccc(F)c3F)oc12)c1cnccn1 [Compound 288]
- EC1.5 μM: B (EC1.5 1-25 μM)
- Emax: < 200%

SMILES: O=C(Nc1cccc2c(=O)cc(-c3cccc(F)c3F)oc12)c1cscn1 [Compound 289]
- EC1.5 μM: C (EC1.5>25 μM)
- Emax: < 200%

SMILES: O=C(Nc1cccc2c(=O)cc(-c3c(F)cccc3F)oc12)c1cnccn1 [Compound 290]
- EC1.5 μM: C (EC1.5>25 μM)
- Emax: < 200%

SMILES: O=C(Nc1cccc2c(=O)cc(-c3c(F)cccc3F)oc12)c1cscn1 [Compound 291]
- EC1.5 μM: B (EC1.5 1-25 μM)
- Emax: < 200%

SMILES: O=C(Nc1cccc2c(=O)cc(-c3cc(F)ccc3F)oc12)c1cnccn1 [Compound 292]
- EC1.5 μM: C (EC1.5>25 μM)
- Emax: < 200%

SMILES: O=C(Nc1cccc2c(=O)cc(-c3cc(F)ccc3F)oc12)c1cscn1 [Compound 293]
- EC1.5 μM: C (EC1.5>25 μM)
- Emax: < 200%

SMILES: Cc1cnc(NC(=O)c2cccc3c(=O)cc(-c4ccccc4OC(F)F)oc23)s1 [Compound 294]
- EC1.5 μM: B (EC1.5 1-25 μM)
- Emax: < 200%

SMILES: Cc1cnc(NC(=O)c2cccc3c(=O)cc(-c4cccc(F)c4F)oc23)s1 [Compound 295]
- EC1.5 μM: C (EC1.5>25 μM)
- Emax: < 200%

SMILES: O=C(Nc1cccc2c(=O)cc(-c3c(F)cccc3Cl)oc12)c1cnccn1 [Compound 296]
- EC1.5 μM: A (EC1-5<1.0)
- Emax: > 200%

SMILES: O=C(Nc1cccc2c(=O)cc(-c3c(F)cccc3Cl)oc12)c1cscn1 [Compound 297]
- EC1.5 μM: B (EC1.5 1-25 μM)
- Emax: > 200%

SMILES: O=C(Nc1cccc2c(=O)cc(-c3cccc(F)c3Cl)oc12)c1cnccn1 [Compound 298]
- EC1.5 μM: B (EC1.5 1-25 μM)
- Emax: < 200%

SMILES: O=C(Nc1cccc2c(=O)cc(-c3cccc(F)c3Cl)oc12)c1cscn1 [Compound 299]
- EC1.5 μM: C (EC1.5>25 μM)
- Emax: < 200%

SMILES: O=C(Nc1cccc2c(=O)cc(-c3cc(F)ccc3Cl)oc12)c1cnccn1 [Compound 300]
- EC1.5 μM: C (EC1.5>25 μM)
- Emax: < 200%

SMILES: O=C(Nc1cccc2c(=O)cc(-c3cc(F)ccc3Cl)oc12)c1cscn1 [Compound 301]
- EC1.5 μM: C (EC1.5>25 μM)
- Emax: < 200%

SMILES: O=C(Nc1cccc2c(=O)cc(-c3c(Cl)cccc3Cl)oc12)c1cnccn1 [Compound 302]
- EC1.5 μM: B (EC1.5 1-25 μM)
- Emax: > 200%

SMILES: O=C(Nc1cccc2c(=O)cc(-c3c(Cl)cccc3Cl)oc12)c1cscn1 [Compound 303]
- EC1.5 μM: B (EC1.5 1-25 μM)
- Emax: > 200%

SMILES: Cc1cnc(NC(=O)c2cccc3c(=O)cc(-c4ccccc4S(C)(=O)=O)oc23)s1 [Compound 304]
- EC1.5 μM: C (EC1.5>25 μM)
- Emax: < 200%

SMILES: Cc1cnc(NC(=O)c2cccc3c(=O)cc(-c4cccnc4C(F)(F)F)oc23)s1 [Compound 305, N-(5-methylthiazol-2-yl)-4-oxo-2-(2-(trifluoromethyl)pyridin-3-yl)-4H-chromene-8-carboxamide]
- EC1.5 μM: C (EC1.5>25 μM)
- Emax: < 200%

SMILES: O=C(Nc1cccc2c(=O)cc(-c3cccnc3C(F)(F)F)oc12)c1cnccn1 [Compound 306, N-(4-oxo-2-(2-(trifluoromethyl)pyridin-3-yl)-4H-chromen-8-yl)pyrazine-2-carboxamide]
- EC1.5 μM: B (EC1.5 1-25 μM)
- Emax: > 200%

SMILES: O=C(Nc1cccc2c(=O)cc(-c3cccnc3C(F)(F)F)oc12)c1cscn1 [Compound 307]
- EC1.5 μM: A (EC1-5<1.0)
- Emax: > 200%

SMILES: O=C(Nc1cccc2c(=O)cc(-c3cnccc3C(F)(F)F)oc12)c1cnccn1 [Compound 308]
- EC1.5 μM: B (EC1.5 1-25 μM)
- Emax: > 200%

SMILES: O=C(Nc1cccc2c(=O)cc(-c3cnccc3C(F)(F)F)oc12)c1cscn1 [Compound 309]
- EC1.5 μM: B (EC1.5 1-25 μM)
- Emax: > 200%

SMILES: Cc1cnc(NC(=O)c2cccc3c(=O)cc(-c4cnccc4C(F)(F)F)oc23)s1 [Compound 310]
- EC1.5 μM: B (EC1.5 1-25 μM)
- Emax: < 200%

SMILES: O=C(Nc1cccc2c(=O)cc(-c3ccccc3C(F)(F)F)oc12)c1cccc(N2CCOCC2)c1 [Compound 311]
- EC1.5 μM: B (EC1.5 1-25 μM)
- Emax: > 200%

SMILES: O=C(Nc1cccc2c(=O)cc(-c3ccccc3C(F)(F)F)oc12)c1cccc(N2CCCC2)c1 [Compound 312]
- EC1.5 μM: B (EC1.5 1-25 μM)
- Emax: > 200%

SMILES: O=C1CCC(C(=O)Nc2cccc3c(=O)cc(-c4ccccc4C(F)(F)F)oc23)N1 (centres unmarked) [Compound 313, 5-oxo-N-(4-oxo-2-(2-(trifluoromethyl)phenyl)-4H-chromen-8-yl)pyrrolidine-2-carboxamide]
- EC1.5 μM: B (EC1.5 1-25 μM)
- Emax: > 200%

SMILES: O=C(Nc1cccc2c(=O)cc(-c3ccccc3C(F)(F)F)oc12)c1cccc(CN2CCOCC2)n1 [Compound 315]
- EC1.5 μM: A (EC1-5<1.0)
- Emax: > 200%

SMILES: O=C(Nc1cccc2c(=O)cc(-c3ccccc3C(F)(F)F)oc12)c1cncc(N2CCOCC2)n1 [Compound 316]
- EC1.5 μM: A (EC1-5<1.0)
- Emax: > 200%

SMILES: CN1CCCC1C(=O)Nc1cccc2c(=O)cc(-c3ccccc3C(F)(F)F)oc12 (centres unmarked) [Compound 317]
- EC1.5 μM: B (EC1.5 1-25 μM)
- Emax: < 200%

SMILES: O=C(Nc1cccc2c(=O)cc(-c3ccccc3C(F)(F)F)oc12)c1cccc(OCC(O)CO)n1 (centres unmarked) [Compound 318]
- EC1.5 μM: A (EC1-5<1.0)
- Emax: > 200%

SMILES: O=C(Nc1cccc2c(=O)cc(-c3ccccc3Cl)oc12)c1cncc(N2CCOCC2)n1 [Compound 319]
- EC1.5 μM: A (EC1-5<1.0)
- Emax: > 200%

SMILES: O=C(Nc1cccc2c(=O)cc(-c3ccccc3C(F)(F)F)oc12)c1cccc(CN2CCCC2)n1 [Compound 320]
- EC1.5 μM: A (EC1-5<1.0)
- Emax: > 200%

SMILES: O=C(Nc1cccc2c(=O)cc(-c3ccccc3C(F)(F)F)oc12)c1cccnc1OCC(O)CO (centres unmarked) [Compound 321]
- EC1.5 μM: B (EC1.5 1-25 μM)
- Emax: > 200%

SMILES: O=C(Nc1cccc2c(=O)cc(-c3ccccc3C(F)(F)F)oc12)c1cccc(N2CCOCC2)n1 [Compound 322]
- EC1.5 μM: A (EC1-5<1.0)
- Emax: > 200%

SMILES: O=C(Nc1cccc2c(=O)cc(-c3ccccc3C(F)(F)F)oc12)c1cccc(N2CCCC2)n1 [Compound 323]
- EC1.5 μM: A (EC1-5<1.0)
- Emax: > 200%
